The values below come from ChEMBL document CHEMBL1201862, “PubChem BioAssay data set” (2004).

Holding throughout (assay): NCI tumour cell line growth inhibition, 48 h
Experiment [1] has as its system A498.
In experiment [2] the test system is CCRF-CEM.
For experiment [3], the system named is HOP-92.
Experiment [4] concerns IGROV-1.
Experiment [5] relates to KM12.
Experiment [6] has as its system LOX IMVI.
Experiment [7] has as its system MCF7.
Experiment [8] has as its system MDA-MB-231.
In experiment [9] the test system is OVCAR-3.
Experiment [10] deals with OVCAR-5.
Experiment [11] has as its system PC-3.
Experiment [12] concerns RXF 393.
For experiment [13], the system named is SK-MEL-2.
Experiment [14] relates to SK-MEL-5.
The test system of experiment [15] is SN12C.
The test system of experiment [16] is SNB-19.
Experiment [17] has as its system SNB-75.
Experiment [18] has as its system SW-620.
Experiment [19] relates to UO-31.
For experiment [20], the system named is UACC-257.

Structures are written as SMILES.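 Cells were grown in 96-well plates and exposed to each compound for 48 hours at five concentrations; endpoints were interpolated linearly between bracketing concentrations, or set to the highest concentration if not reached. GI50 marks 50% less growth.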 The source made the active and inactive calls. No stated cut-off is given here; in the data, active = GI50 up to about 1.1 µM and inactive = higher.

Regarding `O=C(NNc1ccccc1)c1ccc(Cl)c(Cl)c1`, the GI50 in experiment [1] was 5.2 µM (inactive); in experiment [2] it was 1.12 µM (inactive); in experiment [3], > 78.9 µM (inactive); in [4] it was 13.2 µM (inactive); in experiment [5], 0.114 µM (active); in experiment [6], 0.0438 µM (active). Also, the GI50 is 0.585 µM (active) in [7]; 35.6 µM (inactive) in experiment [8]; 4.7 µM (inactive) in experiment [9]; 57 µM (inactive) in [10]; 25.2 µM (inactive) in experiment [11]; 19.3 µM (inactive) in experiment [12]. The GI50 in [13] is 0.875 µM (active); in experiment [14] it was 1.3 µM (inactive); in experiment [15], 27.9 µM (inactive); in experiment [16], 25.8 µM (inactive); in experiment [17], 25.8 µM (inactive); in [18], 0.108 µM (active). Moreover, the GI50 in [19] is 2.44 µM (inactive).
For the compound `C#CCn1c(=O)c(I)cn(/C(=C/C(=O)OCC)C(=O)OCC)c1=O`, the GI50 in experiment [1] is 19.1 µM (inactive); in experiment [2], 3.53 µM (inactive); in experiment [3], 1.75 µM (inactive); in experiment [4], 15.7 µM (inactive); in [5], 18 µM (inactive); in experiment [6], 4.95 µM (inactive). The GI50 in experiment [7] was 2.12 µM (inactive); in experiment [8], 15.2 µM (inactive); in experiment [9], 1.78 µM (inactive); in [10] it was 16.2 µM (inactive); in experiment [11], 5.06 µM (inactive); in [12] it was 3.61 µM (inactive). The GI50 is 15.5 µM (inactive) in experiment [13]; 15.9 µM (inactive) in experiment [15]; 18.3 µM (inactive) in experiment [16]; 17.2 µM (inactive) in experiment [17]; 1.18 µM (inactive) in [18]; 3.06 µM (inactive) in [20]. For the same compound, the GI50 in experiment [19] was 1.53 µM (inactive).
Regarding `NCCCNC1(c2cc3ccccc3s2)CCCCC1`, the GI50 was 2.72 µM (inactive) in [1]; 2.48 µM (inactive) in [2]; 11.6 µM (inactive) in experiment [3]; 10.6 µM (inactive) in experiment [4]; 3.22 µM (inactive) in experiment [5]; 2.31 µM (inactive) in [6]. The GI50 in experiment [7] is 3.69 µM (inactive); in experiment [8] it was 3.86 µM (inactive); in experiment [9] it was 7.19 µM (inactive); in experiment [10], 13 µM (inactive); in [11], 7.13 µM (inactive); in experiment [12], 4.17 µM (inactive). In addition, the GI50 was 1.79 µM (inactive) in [13]; 1.82 µM (inactive) in [14]; 10.5 µM (inactive) in experiment [15]; 8.77 µM (inactive) in [16]; 10.9 µM (inactive) in experiment [17]; 4.55 µM (inactive) in [18]. Besides, the GI50 is 1.64 µM (inactive) in experiment [20] and 1.93 µM (inactive) in [19].
For `COc1cc(C)c2c(=O)c3ccccc3n(C)c2c1`, the GI50 in [1] is 26.5 µM (inactive); in [2], 21.9 µM (inactive); in experiment [3], 7.43 µM (inactive); in experiment [4], 26.9 µM (inactive); in experiment [5] it was 23.9 µM (inactive); in [6], 17.4 µM (inactive). In addition, the GI50 in experiment [7] is 28.2 µM (inactive); in experiment [8], 25.6 µM (inactive); in [9], 21.6 µM (inactive); in [10], 16.9 µM (inactive); in experiment [11], 28.8 µM (inactive); in experiment [12], 14.2 µM (inactive). For the same compound, the GI50 was 36.4 µM (inactive) in experiment [13]; > 10 µM (inactive) in experiment [14]; 20.7 µM (inactive) in experiment [15]; 34.8 µM (inactive) in [16]; 26.4 µM (inactive) in experiment [17]; 45.3 µM (inactive) in [18]. In [20], the GI50 was 30.3 µM (inactive).
With `Cn1c(=O)n2n(c1=O)Cc1cccc3cccc(c13)C2`, the GI50 in [1], in [2], in experiment [3], in experiment [5], in experiment [6] and in experiment [7] was > 100 µM (inactive) in each case. Also, the GI50 in experiment [8] was > 100 µM (inactive); in [9], > 100 µM (inactive); in [10] it was > 100 µM (inactive); in experiment [11] it was > 100 µM (inactive); in experiment [12] it was 53.6 µM (inactive); in experiment [13] it was > 100 µM (inactive). Also, the GI50 in experiment [14], in experiment [15], in [16], in experiment [17], in experiment [18] and in experiment [20] was > 100 µM (inactive) throughout. In addition, the GI50 in experiment [19] was 63.8 µM (inactive).
With `N#Cc1nc(/C=C/c2cccs2)oc1N`, the GI50 in experiment [1] is > 100 µM (inactive); in [2] it was 25.4 µM (inactive); in experiment [3], 35.8 µM (inactive); in experiment [4], 65.9 µM (inactive); in experiment [5] it was > 100 µM (inactive); in [6], > 100 µM (inactive). The GI50 in experiment [7] was 99.1 µM (inactive); in experiment [8], > 100 µM (inactive); in experiment [10] it was > 100 µM (inactive); in experiment [11] it was 97.1 µM (inactive); in [12] it was > 100 µM (inactive); in [13] it was > 100 µM (inactive). In addition, the GI50 in experiment [14] is 51.1 µM (inactive); in experiment [15], > 100 µM (inactive); in [16] it was > 100 µM (inactive); in experiment [17], > 100 µM (inactive); in [18] it was > 100 µM (inactive); in [20], > 100 µM (inactive). Also, the GI50 in [19] is 10.4 µM (inactive).
`O=C1c2ccccc2C2=Cc3ccccc3C(O)N12` (configuration not stated): the GI50 was > 100 µM (inactive) in [1]; 36.5 µM (inactive) in experiment [2]; 41.3 µM (inactive) in experiment [3]; > 100 µM (inactive) in experiment [4]; > 100 µM (inactive) in experiment [5]; 38.6 µM (inactive) in [6]. In addition, the GI50 in [7] is > 100 µM (inactive); in experiment [8] it was > 100 µM (inactive); in experiment [9], > 100 µM (inactive); in [10], > 100 µM (inactive); in [11] it was > 100 µM (inactive); in experiment [12], 26.2 µM (inactive). For the same compound, the GI50 in experiment [13] is > 100 µM (inactive); in experiment [14], > 100 µM (inactive); in experiment [15], > 100 µM (inactive); in [16], > 100 µM (inactive); in experiment [17], 92.5 µM (inactive); in experiment [18], > 100 µM (inactive). Moreover, the GI50 in experiment [20] is > 100 µM (inactive); in experiment [19], 18.1 µM (inactive).
`COC(=O)C12CCC(C(F)(F)C1=O)C2(C)C` (configuration not stated): the GI50 in [1], in [3], in experiment [4], in [5], in experiment [6] and in [7] was > 100 µM (inactive) each time. Further, the GI50 in [8], in [9], in experiment [10], in experiment [11], in experiment [12] and in experiment [13] was > 100 µM (inactive) each time. In addition, the GI50 in [14], in experiment [15], in [16], in [17], in experiment [18] and in [20] was > 100 µM (inactive) each time. Further, the GI50 in experiment [19] is > 100 µM (inactive).
Consider `CC(=O)Oc1c2oc3ccc(Cl)cc3c(=O)c2c(O)c2ccsc12`, for which the GI50 is > 100 µM (inactive) in experiment [1]; 86.1 µM (inactive) in experiment [2]; > 100 µM (inactive) in [3]; > 100 µM (inactive) in experiment [5]; > 100 µM (inactive) in experiment [6]; > 100 µM (inactive) in [7]. Moreover, the GI50 was 28.2 µM (inactive) in experiment [8]; > 100 µM (inactive) in [9]; > 100 µM (inactive) in [10]; > 100 µM (inactive) in [11]; > 100 µM (inactive) in experiment [12]; > 100 µM (inactive) in [13]. The GI50 in experiment [14] was > 100 µM (inactive); in experiment [15], > 100 µM (inactive); in [16], > 100 µM (inactive); in experiment [17] it was 52.4 µM (inactive); in [18], > 100 µM (inactive); in [20], > 100 µM (inactive). For the same compound, the GI50 in experiment [19] was > 100 µM (inactive).
For the compound `CCOC(=O)c1c(O)cn2c1[nH]c1cccc3cccc2c31`, the GI50 in experiment [1] was > 100 µM (inactive); in [2], 32.6 µM (inactive); in experiment [3] it was 51.4 µM (inactive); in experiment [4], 62.2 µM (inactive); in experiment [5] it was > 100 µM (inactive); in [6], 46.9 µM (inactive). Further, the GI50 is 49.2 µM (inactive) in experiment [7]; > 100 µM (inactive) in [8]; > 100 µM (inactive) in experiment [10]; > 100 µM (inactive) in experiment [11]; 41.5 µM (inactive) in experiment [12]; > 100 µM (inactive) in experiment [13]. In addition, the GI50 is > 100 µM (inactive) in experiment [14]; > 100 µM (inactive) in [15]; 97.7 µM (inactive) in [16]; 37.4 µM (inactive) in experiment [17]; > 100 µM (inactive) in experiment [18]; > 100 µM (inactive) in [20]. The GI50 in [19] is 69.2 µM (inactive).
